Laboratory results reported in patent US20130030000A1, “PHARMACEUTICAL COMPOSITIONS FOR THE TREATMENT OF PAIN AND OTHER INDICATIONS” (priority 2010, published 2013).
Counter-ions that a name gives are not always drawn. Like-named read-outs stand apart in the source and are kept apart here.

What was measured:
[1] = biological target: T1, Human FAAH (Homo sapiens, UniProt O00519); experiment: Human FAAH lysate assay (CHO cell lysate expressing FAAH, AAMCA or 3H-anandamide hydrolysis); type: biochemical
T1 construct: The full length FAAH was subcloned into the mammalian expression vector, peDEF.neo
T1 sequence (O00519 1-579): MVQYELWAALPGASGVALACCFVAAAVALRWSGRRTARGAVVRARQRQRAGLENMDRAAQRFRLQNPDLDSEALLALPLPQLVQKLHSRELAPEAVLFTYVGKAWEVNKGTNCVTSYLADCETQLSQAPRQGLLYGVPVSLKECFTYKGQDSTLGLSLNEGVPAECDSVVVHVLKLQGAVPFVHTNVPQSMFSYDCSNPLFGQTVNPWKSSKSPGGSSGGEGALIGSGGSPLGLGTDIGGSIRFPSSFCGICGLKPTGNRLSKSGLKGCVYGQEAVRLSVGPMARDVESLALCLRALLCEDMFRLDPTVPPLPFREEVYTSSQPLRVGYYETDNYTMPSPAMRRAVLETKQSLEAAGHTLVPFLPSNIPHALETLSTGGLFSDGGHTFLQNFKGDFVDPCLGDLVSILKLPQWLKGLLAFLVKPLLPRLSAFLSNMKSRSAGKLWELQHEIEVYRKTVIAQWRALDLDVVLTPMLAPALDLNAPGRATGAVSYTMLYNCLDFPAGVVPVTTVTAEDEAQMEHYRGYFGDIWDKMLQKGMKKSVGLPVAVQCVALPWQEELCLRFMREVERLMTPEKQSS
From the text: To assist in assay development stable cell lines for human, murine and rat full length FAAH were developed. […] The full length FAAH was subcloned into the mammalian expression vector, peDEF.neo, using XbaI and EcoRI restriction sites and used for stable cell line generation.
CHO cells expressing FAAH were used to prepare either crude cell lysate or microsome fractions. To harvest cells, tissue culture media was decanted, the monolayer washed three times with Ca^++Mg^++ free PBS and cells recovered after […] in enzyme free dissociation media (Millipore Corp, Billerica, Mass.). Cells were collected by centrifuging at 2000 rpm for 15 min. and the cell pellet re-suspended with 50 mM HEPES (pH 7.4) containing 1 mM EDTA and the protease inhibitors aprotinin (1 mg/ml) and leupeptin (100 μM). The suspension was sonicated at 4° C. and the cell lysate recovered after centrifuging at 12,000×g (14,600 rpm, SS34 rotor) for 20 min at 4° C. to form a crude pellet of cell debris, nuclei, peroxisomes, lysosomes, and mitochondria; the supernatant or cell lysate was used for FAAH enzyme assay. In some cases, microsomes fractions enriched in FAAH were prepared by centrifuging the cell lysate further at 27,000 rpm (100,000×g) in SW28 rotor for 50 minutes at 4° C. The pellet containing FAAH-enriched microsomes was re-suspend in 50 mM HEPES, (pH 7,4) 1 mM EDTA, and any remaining DNA sheared by passage of material through a 23 gauge needle and aliquots of enzyme were store at −80° C. prior to use.
Assays are performed on either cell lysate or microsome fractions prepared as described or in whole cell format employing either the fluorescent substrate AAMCA (Cayman chemical, Ann Arbor, Mich.,) or ^3H-anandamide ([ETHANOLAMINE-1-3H] American Radiolabeled Chemicals; 1 mCi/ml). The cell lysate or microsome assay is performed in Costar black wall, clear bottom plates by adding FAAH_CHO (whole cell, cell lysate or microsome) in assay buffer (50 mM Phosphate, pH 8.0, 1 mM EDTA, 200 mM KCl, 0.2% glycerol, 0.1% fatty acid free BSA) to each well, followed by either DMSO or compound and allowed to incubate at 22-25° C. for fifteen minutes. AAMCA substrate was used to achieve a final concentration of 1 μM and reaction allowed to proceed at room temperature for 1-3 hours. […] Whole cell assay is conducted with cells harvested after rinsing tissue culture flasks three times with Ca^++Mg^++ free PBS, incubating for 10 mm in Enzyme free dissociation media and centrifuging for 5 minutes at 1,000 rpm in table top centrifuge. Cells are resuspended in assay buffer at desired cell number in (4×10^4 cells/assay in 96-well format; 1×10^4 cells/assay in 384-well format) and assayed as described.
Alternatively, assays are performed using anandamide [ethanolamine 1-^3H] (specific activity of 10 Ci/mmol) diluted with cold anandamide to achieve a final assay concentration of 1 μM anandamide (˜50,000 cpm). Enzyme (CHO cell lysate, brain or liver homogenate) is incubated in assay buffer (50 mM Phosphate, pH 8.0, 1 mM EDTA, 200 mM KCl, 0.2% glycerol, 0.1% fatty acid free BSA) with inhibitor at 25° C. for 30 minutes. The reaction was terminated by addition of 2 volumes of chloroform:methanol (1:1) and mixed by vortexing. Following a centrifugation step, 2000 rpm for 10 min. at room temperature, the aqueous phase containing the released […] was recovered and quantitated by liquid scintillation as a reflection of FAAH enzyme activity.

[2] = tested on: Complete Freunds Adjuvant model of inflammatory pain; experiment: Combination study: isobolographic analysis in the Complete Freunds Adjuvant model of inflammatory pain; type: in vivo; settings: rat, PO, etoricoxib:Compound A dose ratios 1:1, 0.3:1 and 3:1
Method: Etoricoxib and Compound A were tested in PO dose ratios of 1:1, 0.3:1, and 3:1.

[3] = B series, read-out: Human FAAH lysate assay: IC50
[4] = tables of the B series, read-out: hFAAH lysate IC50

SMILES	IC50 [1, 3]	IC50 [1, 4]	also measured
Cn1cnc(-c2ccc([C@H]3C[C@@H]3c3ncon3)cc2)c1Sc1ccc(Cl)cn1 [Example 35B, 5-chloro-2-[(1-methyl-4-{4-[(1S,2S)-2-(1,2,4-oxadiazol-3-yl)cyclopropyl]phenyl}-1H-imidazol-5-yl)thio]pyridine]	58.4 nM	–	–
Cn1cnc(-c2ccc([C@H]3C[C@@H]3c3noc(=O)[nH]3)cc2)c1Sc1ccc(Cl)cn1 [Example 36B, 5-[(5-chloropyridin-2-yl)thio]-1-methyl-4-{4-[(1S,2S)-2-(5-oxo-4,5-dihydro-1,2,4-oxadiazol-3-yl)cyclopropyl]phenyl}-1H-imidazol-3-ium trifluoroacetate]	95.4 nM	–	–
Cn1nnc([C@H]2C[C@@H]2c2ccc(-c3ncn(C)c3Sc3ccc(Cl)cn3)cc2)n1 [Example 38B, 5-chloro-2-[(1-methyl-4-{4-[(1 S,2S)-2-(2-methyl-2H-tetrazol-5-yl)cyclopropyl]phenyl}-1H-imidazol-5-yl)thio]pyridine]	37 nM	–	–
Cn1cnc(-c2ccc([C@H]3C[C@@H]3c3n[nH]c(=O)o3)cc2)c1Sc1ccc(Cl)cc1 [Example 39B]	–	24 nM	–
Cn1cnc(-c2ccc([C@H]3C[C@@H]3c3n[nH]c(=O)o3)cc2)c1Sc1ccc(F)cc1F [Example 41B]	–	1.3 nM	–
Cn1cnc(-c2ccc([C@H]3C[C@@H]3c3n[nH]c(=O)o3)cc2)c1Sc1ccc(Cl)cc1F [Example 42B]	–	1.8 nM	–
CC(C)c1ccc(Sc2c(-c3ccc([C@H]4C[C@@H]4c4n[nH]c(=O)o4)cc3)ncn2C)cc1 [Example 43B]	–	20 nM	–
Cn1cnc(-c2ccc([C@H]3C[C@@H]3C(=O)NCCF)cc2)c1Sc1ccc(Cl)cn1 [Example 1013, (1S,2S)-2-(4-{5-[(5-Chloropyridin-2-yl)thio]-1-methyl-1H-imidazol-4-yl}phenyl)-N-(2-fluoroethyl)cyclopropanecarboxamide]	1.5 nM	–	–
CC(C)(O)c1ccc(-c2nc(-c3ccc(F)c(F)c3)oc2Sc2ccc(Cl)cn2)cn1 [compound A]	–	–	Interaction of analgesic effect against inflammatory pain when co-dosed (isobologram) [2]: additive
Cc1ccc(-c2ncc(Cl)cc2-c2ccc(S(C)(=O)=O)cc2)cn1 [etoricoxib, reference compound]	–	–	Interaction of analgesic effect against inflammatory pain when co-dosed (isobologram) [2]: additive

More lines, main results first:

IC50 [1, 3]	IC50 [1, 4]	SMILES	also measured
893 nM	–	Cn1cnc(-c2ccc([C@H]3C[C@@H]3c3n[nH]c(=O)n3C)cc2)c1Sc1ccc(Cl)cn1 [Example 34B, 5-[(1S,2S)-2-(4-{5-[(5-chloropyridin-2yl)thio]-1-methyl-1H-imidazol-4-yl}phenyl)cyclopropyl]-4-methyl-2,4-dihydro-3H-1,2,4-triazol-3-one]	–
167 nM	–	Cn1cnc(-c2ccc([C@H]3C[C@@H]3c3nn[nH]n3)cc2)c1Sc1ccc(Cl)cn1 [Example 37B, 5-[(5-chloropyridin-2-yl)thio]-1-methyl-4-{4-[(1S,2S)-2-(2H-tetrazol-5-yl)cyclopropyl]phenyl}-1H-imidazol-3-ium trifluoroacetate]	–
–	33 nM	COc1cnc(Sc2c(-c3ccc([C@H]4C[C@@H]4c4n[nH]c(=O)o4)cc3)ncn2C)nc1 [Example 40B]	–
171 nM	–	Cn1cnc(-c2ccc([C@H]3C[C@@H]3c3nn(C)c(=O)o3)cc2)c1Sc1ccc(Cl)cn1 [Example 3013, 5-[(1S,2S)-2-(4-{5-[(5-chloropyridin-2-yl)thio]-1-methyl-1H-imidazol-4-yl}phenyl)cyclopropyl]-3-methyl-1,3,4-oxadiazol-2(3H)-one]	–
